Laboratory results taken from PubChem BioAssay (NCI).
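In this assay, cells in 96-well plates receive the compound at five concentrations for 48 hours. Endpoints are linearly interpolated between the surrounding concentrations. At the GI50, growth is halved. At the TGI there is no net growth.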

Key:
Assay in all cases: inhibition of tumour cell growth, NCI panel, 48 h
K-562 leukemia = tested on: K-562 leukemia
SNB-19 CNS = tested on: SNB-19 CNS
NCI-H23 lung = tested on: NCI-H23 lung
HOP-92 NSCLC = tested on: HOP-92 NSCLC
HCT-15 colon = tested on: HCT-15 colon
HT29 colon = tested on: HT29 colon
LOX IMVI melanoma = tested on: LOX IMVI melanoma
OVCAR-4 ovarian = tested on: OVCAR-4 ovarian
SF-539 CNS = tested on: SF-539 CNS
IGROV1 ovarian = tested on: IGROV1 ovarian
NCI-H226 lung = tested on: NCI-H226 lung
SK-MEL-5 melanoma = tested on: SK-MEL-5 melanoma
UO-31 renal = tested on: UO-31 renal
COLO 205 colon = tested on: COLO 205 colon
MOLT-4 leukemia = tested on: MOLT-4 leukemia
OVCAR-5 ovarian = tested on: OVCAR-5 ovarian
SF-268 CNS = tested on: SF-268 CNS
NCI-H522 lung = tested on: NCI-H522 lung
M14 melanoma = tested on: M14 melanoma
OVCAR-8 ovarian = tested on: OVCAR-8 ovarian
SNB-75 CNS = tested on: SNB-75 CNS
OVCAR-3 ovarian = tested on: OVCAR-3 ovarian
NCI/ADR-RES ovarian = tested on: NCI/ADR-RES ovarian
BT-549 breast = tested on: BT-549 breast
CCRF-CEM leukemia = tested on: CCRF-CEM leukemia
MDA-MB-231 breast = tested on: MDA-MB-231 breast
HL-60(TB) leukemia = tested on: HL-60(TB) leukemia
DU-145 prostate = tested on: DU-145 prostate
HCT-116 colon = tested on: HCT-116 colon
SF-295 CNS = tested on: SF-295 CNS
KM12 colon = tested on: KM12 colon
UACC-62 melanoma = tested on: UACC-62 melanoma
U251 CNS = tested on: U251 CNS
UACC-257 melanoma = tested on: UACC-257 melanoma
786-0 renal = tested on: 786-0 renal
TK-10 renal = tested on: TK-10 renal
SK-MEL-28 melanoma = tested on: SK-MEL-28 melanoma
A498 renal = tested on: A498 renal
SK-MEL-2 melanoma = tested on: SK-MEL-2 melanoma
SN12C renal = tested on: SN12C renal
MCF7 breast = tested on: MCF7 breast
CAKI-1 renal = tested on: CAKI-1 renal
RPMI-8226 leukemia = tested on: RPMI-8226 leukemia
ACHN renal = tested on: ACHN renal
SK-OV-3 ovarian = tested on: SK-OV-3 ovarian
EKVX NSCLC = tested on: EKVX NSCLC
PC-3 prostate = tested on: PC-3 prostate
HOP-62 NSCLC = tested on: HOP-62 NSCLC
MALME-3M melanoma = tested on: MALME-3M melanoma
SW-620 colon = tested on: SW-620 colon
MDA-N = tested on: MDA-N
A549 NSCLC = tested on: A549 NSCLC
HCC-2998 colon = tested on: HCC-2998 colon
NCI-H460 lung = tested on: NCI-H460 lung
MDA-MB-435 = tested on: MDA-MB-435
T-47D breast = tested on: T-47D breast
RXF 393 renal = tested on: RXF 393 renal
HS 578T breast = tested on: HS 578T breast
SR leukemia = tested on: SR leukemia

For `CNC(=O)CCCN(C)C(=O)CCCCC(=O)N(C)C`, the TGI (K-562 leukemia) was over 100 µM, the TGI (SNB-19 CNS) was over 100 µM and the TGI (NCI-H23 lung) was over 100 µM. It also gave a TGI (HOP-92 NSCLC) of over 100 µM, a TGI (HCT-15 colon) of over 100 µM and a TGI (HT29 colon) of over 100 µM. For the same compound, the TGI (LOX IMVI melanoma) was over 100 µM, the TGI (OVCAR-4 ovarian) was over 100 µM and the TGI (SF-539 CNS) was over 100 µM. The TGI (IGROV1 ovarian) was over 100 µM, the TGI (NCI-H226 lung) was over 100 µM and the TGI (SK-MEL-5 melanoma) was over 100 µM. For the same compound, the TGI (UO-31 renal) was over 100 µM, the TGI (COLO 205 colon) was over 100 µM and the TGI (MOLT-4 leukemia) was over 100 µM. The TGI (OVCAR-5 ovarian) was over 100 µM, the TGI (SF-268 CNS) was over 100 µM and the TGI (NCI-H522 lung) was over 100 µM. It also gave a TGI (M14 melanoma) of over 100 µM, a TGI (OVCAR-8 ovarian) of over 100 µM and a TGI (SNB-75 CNS) of over 100 µM. The TGI (OVCAR-3 ovarian) was over 100 µM, the TGI (NCI/ADR-RES ovarian) was over 100 µM and the TGI (BT-549 breast) was over 100 µM. It also gave a TGI (CCRF-CEM leukemia) of over 100 µM, a TGI (MDA-MB-231 breast) of over 100 µM and a TGI (HL-60(TB) leukemia) of over 100 µM. The TGI (DU-145 prostate) was over 100 µM, the TGI (HCT-116 colon) was over 100 µM and the TGI (SF-295 CNS) was over 100 µM. It also gave a TGI (KM12 colon) of over 100 µM, a TGI (UACC-62 melanoma) of over 100 µM and a TGI (U251 CNS) of over 100 µM. The TGI (UACC-257 melanoma) was over 100 µM, the TGI (786-0 renal) was over 100 µM and the TGI (TK-10 renal) was over 100 µM. For the same compound, the TGI (SK-MEL-28 melanoma) was over 100 µM, the TGI (A498 renal) was over 100 µM and the TGI (SK-MEL-2 melanoma) was over 100 µM. For the same compound, the TGI (SN12C renal) was over 100 µM, the TGI (MCF7 breast) was over 100 µM and the TGI (CAKI-1 renal) was over 100 µM. It also gave a TGI (RPMI-8226 leukemia) of over 100 µM, a TGI (ACHN renal) of over 100 µM and a TGI (SK-OV-3 ovarian) of over 100 µM. The TGI (EKVX NSCLC) was over 100 µM, the TGI (PC-3 prostate) was over 100 µM and the TGI (HOP-62 NSCLC) was over 100 µM. For the same compound, the TGI (MALME-3M melanoma) was over 100 µM, the TGI (SW-620 colon) was over 100 µM and the TGI (MDA-N) was over 100 µM. For the same compound, the TGI (A549 NSCLC) was over 100 µM, the TGI (HCC-2998 colon) was over 100 µM and the TGI (NCI-H460 lung) was over 100 µM. For the same compound, the TGI (MDA-MB-435) was over 100 µM, the TGI (T-47D breast) was over 100 µM and the TGI (RXF 393 renal) was over 100 µM. The TGI (HS 578T breast) was over 100 µM.

`CC(=O)Oc1cc2c(cc1OC(C)=O)[C@H]1CC[C@]3(C)[C@@H](OC(C)=O)CC[C@H]3[C@@H]1CC2` gave a TGI (K-562 leukemia) of 16.8 µM, a TGI (SNB-19 CNS) of 21.7 µM and a TGI (NCI-H23 lung) of 22.9 µM. It also gave a TGI (HOP-92 NSCLC) of 5.3 µM, a TGI (HCT-15 colon) of 15.4 µM and a TGI (HT29 colon) of 19.3 µM. It also gave a TGI (LOX IMVI melanoma) of 16.6 µM, a TGI (OVCAR-4 ovarian) of 19.7 µM and a GI50 (SF-539 CNS) of 3.53 µM. For the same compound, the TGI (SF-539 CNS) was 15.9 µM, the TGI (IGROV1 ovarian) was 19.1 µM and the TGI (SK-MEL-5 melanoma) was 20.4 µM. For the same compound, the TGI (UO-31 renal) was 13 µM, the TGI (COLO 205 colon) was 15.5 µM and the TGI (OVCAR-5 ovarian) was 24.2 µM. The TGI (SF-268 CNS) was 22.5 µM, the TGI (NCI-H522 lung) was 3.85 µM and the TGI (M14 melanoma) was 21.1 µM. The TGI (OVCAR-8 ovarian) was 28 µM, the TGI (SNB-75 CNS) was 4.42 µM and the TGI (OVCAR-3 ovarian) was 7.88 µM. The TGI (SR leukemia) was 5.77 µM, the TGI (NCI/ADR-RES ovarian) was 29.5 µM and the TGI (BT-549 breast) was 11.2 µM. The TGI (MDA-MB-231 breast) was 26.3 µM, the TGI (DU-145 prostate) was 38.9 µM and the GI50 (HCT-116 colon) was 5.08 µM. The TGI (HCT-116 colon) was 18.5 µM, the TGI (SF-295 CNS) was 24.3 µM and the TGI (KM12 colon) was 23.4 µM. It also gave a GI50 (UACC-62 melanoma) of 2.48 µM, a TGI (UACC-62 melanoma) of 13.1 µM and a TGI (U251 CNS) of 17.6 µM. It also gave a TGI (UACC-257 melanoma) of 22.4 µM, a TGI (786-0 renal) of 18.9 µM and a TGI (TK-10 renal) of 20.8 µM. For the same compound, the TGI (SK-MEL-28 melanoma) was 19.7 µM, the TGI (A498 renal) was 25.6 µM and the TGI (SK-MEL-2 melanoma) was 16.1 µM. The GI50 (SN12C renal) was 5.06 µM, the TGI (SN12C renal) was 20.4 µM and the TGI (MCF7 breast) was 20.9 µM. For the same compound, the TGI (CAKI-1 renal) was 12.5 µM, the TGI (RPMI-8226 leukemia) was 8.43 µM and the TGI (ACHN renal) was 16.5 µM. It also gave a TGI (SK-OV-3 ovarian) of 21.7 µM, a TGI (EKVX NSCLC) of 9.64 µM and a TGI (PC-3 prostate) of 25.5 µM. The GI50 (HOP-62 NSCLC) was 4.81 µM, the TGI (HOP-62 NSCLC) was 26.7 µM and the TGI (SW-620 colon) was 15.4 µM. It also gave a TGI (MDA-N) of 16.5 µM, a TGI (A549 NSCLC) of 24.2 µM and a TGI (HCC-2998 colon) of 21.1 µM. The TGI (NCI-H460 lung) was 20.6 µM, the GI50 (MDA-MB-435) was 0.316 µM and the TGI (MDA-MB-435) was 9.65 µM. For the same compound, the TGI (T-47D breast) was 22.2 µM, the TGI (RXF 393 renal) was 16.5 µM and the TGI (HS 578T breast) was 25.2 µM.
